In US20050054559A1, “Compounds for sustained release of orally delivered drugs” (priority 2000, published 2005):
Like-named read-outs stand apart in the source and are kept apart here. Square brackets hold non-standard residues; d marks the D form. Peptide text beside a SMILES is read from it. * marks the point of attachment. Bn = c1ccc(C*)cc1

Key:
IBAT [1] = biological target: T1, IBAT (Homo sapiens, UniProt Q12908); assay: Inhibition of radiolabeled taurocholate uptake in IBAT-transfected CHO cells; type: cell-based; parameters: expressed in transfected cells; host or cells: CHO cells; conditions: radiolabeled competition assay in transporter-expressing CHO cells
Method: (§1) CHO cells transfected with either the IBAT or LBAT transporter were seeded into 96-well microtiter plates at 100,000 cells/well in 100 μL DMEM containing 10% serum, glutamine and Penstrep. After overnight incubation the media was removed and test compound (25 μL) added at 2× the final desired concentration. Tritiated taurocholate (50,000 CPM/well) was diluted with cold substrate to a final concentration of 5 μM and 25 μL/well of this mixture was added to the plate. After incubating for 1 h at room temperature the solution was removed and the plate washed 4× with PBS at 4° C. 200 μL/well of scintillant is added and the plate then read in a Wallac microbeta counter. The inhibition data is processed by standard methods to calculate an inhibition constant Ki for the test compound.

IBAT [2] = biological target: T1, IBAT; assay: Electrogenic transport in Xenopus oocytes expressing IBAT; type: cell-based; conditions: for % Max. (GDC): relative to glycodeoxycholate
Excerpt: (§2) RNA preparation: Human IBAT and LBAT Transporter cDNAs were subcloned into a modified pGEM plasmid that contains 5′ and 3′ untranslated sequences from the Xenopus β-actin gene. These sequences increase RNA stability and protein expression. Plasmid cDNA was linearized and used as template for in vitro transcription (Epicentre Technologies transcription kit, 4:1 methylated:non-methylated GTP).
(§3) Xenopus oocyte isolation. Xenopus laevis frogs were anesthetized by immersion in Tricaine ([…] in deionized water) for 15 min. Oocytes were removed and digested in frog ringer solution (90 mM NaCl, 2 mM KCl, 1 mM MgCl2, 10 mM NaHEPES, pH 7.45, no CaCl2) with 1 mg/mL collagenase (Worthington Type 3) for 80-100 min with shaking. The oocytes were washed 6 times, and the buffer changed to frog ringer solution containing CaCl2 (1.8 mM). Remaining follicle cells were removed if necessary. Cells were incubated at 16° C., and each oocyte injected with […] RNA in […] solution.
(§4) Electrophysiology measurements. Transport currents were measured 2-14 days after injection, using a standard two-electrode electrophysiology set-up (Geneclamp 500 amplifier, Digidata 1320/PCLAMP software and ADInstruments hardware and software were used for signal acquisition). Electrodes ([…]) were microfabricated using a Sutter Instrument puller and filled with 3M KCl. The bath was directly grounded (transporter currents were less than 0.3 μA). Bath flow was controlled by an automated perfusion system (ALA Scientific Instruments, solenoid valves).
For transporter pharmacology, oocytes were clamped at −60 to −90 mV, and continuous current measurements acquired using PowerLab Software and an ADInstruments digitizer. Current signals were lowpass filtered at 20 Hz and acquired at 4-8 Hz. All bath and drug-containing solutions were frog ringers solution containing CaCl2. Drugs were applied for 10-30 seconds until the induced current reached a new steady-state level, followed by a control solution until baseline currents returned to levels that preceded drug application. The difference current (baseline subtracted from peak current during drug application) reflected the net movement of charge resulting from electrogenic transport and was directly proportional to tranport rate. Recordings were made from a single oocyte for up to 60 min, enabling 30-40 separate compounds to be tested per oocyte. […]. Using this normalization procedure Vmax (i.e. maximal induced current) for different compounds tested on different oocytes could be compared.

LBAT = biological target: T2, LBAT (Homo sapiens, UniProt Q14973); assay: Inhibition of radiolabeled taurocholate uptake in LBAT-transfected CHO cells; type: cell-based; conditions: radiolabeled competition assay in transporter-expressing CHO cells
T2 construct: expressed in transfected cells; host or cells: CHO cells
Method: as §1

[3] = in rats; Salach et al, Pharm. Res. 1994; cited from earlier work
hPEPT2 = biological target: T3, hPEPT2 (Homo sapiens, UniProt Q16348); assay: Electrogenic transport in Xenopus oocytes expressing hPEPT2; type: cell-based; conditions: test compound 1 mM, relative to Gly-Sar
T3 sequence (Q16348 1-729): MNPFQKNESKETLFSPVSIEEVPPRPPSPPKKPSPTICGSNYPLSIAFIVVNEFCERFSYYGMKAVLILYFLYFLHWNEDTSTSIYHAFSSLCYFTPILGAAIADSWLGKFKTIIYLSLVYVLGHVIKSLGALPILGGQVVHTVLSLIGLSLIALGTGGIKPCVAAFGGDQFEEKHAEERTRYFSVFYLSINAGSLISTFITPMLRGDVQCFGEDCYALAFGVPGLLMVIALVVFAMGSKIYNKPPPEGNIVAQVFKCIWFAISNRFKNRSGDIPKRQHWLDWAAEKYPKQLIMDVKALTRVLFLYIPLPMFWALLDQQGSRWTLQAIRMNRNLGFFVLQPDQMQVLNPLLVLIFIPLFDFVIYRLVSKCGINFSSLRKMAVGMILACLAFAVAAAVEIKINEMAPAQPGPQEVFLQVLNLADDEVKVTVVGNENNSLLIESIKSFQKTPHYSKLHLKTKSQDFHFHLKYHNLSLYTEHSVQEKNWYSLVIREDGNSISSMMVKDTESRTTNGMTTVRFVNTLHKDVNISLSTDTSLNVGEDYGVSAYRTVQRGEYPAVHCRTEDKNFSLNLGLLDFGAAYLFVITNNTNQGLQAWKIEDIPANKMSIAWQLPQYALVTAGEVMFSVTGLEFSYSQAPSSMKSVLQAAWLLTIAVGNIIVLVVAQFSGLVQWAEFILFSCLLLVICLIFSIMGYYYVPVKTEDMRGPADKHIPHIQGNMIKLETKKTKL
Excerpt: as §2, with “Rat” for “Human IBAT”, “human PEPT1 and PEPT2 transporter” for “LBAT Transporter”
as §3, §4
(§5) For transporter pharmacology, oocytes were clamped at −60 to −90 mV, and continuous current measurements acquired using PowerLab Software and an ADInstruments digitizer. Current signals were lowpass filtered at 20 Hz and acquired at 4-8 Hz. All bath and drug-containing solutions were frog ringers solution containing CaCl2. Drugs were applied for 10-30 seconds until the induced current reached a new steady-state level, followed by a control solution until baseline currents returned to levels that preceded drug application. The difference current (baseline subtracted from peak current during drug application) reflected the net movement of charge resulting from electrogenic transport and was directly proportional to tranport rate. Recordings were made from a single oocyte for up to 60 min, enabling 30-40 separate compounds to be tested per oocyte. […] To compare results between oocytes expressing different levels of transport activity, a saturating concentration of glycyl-sarcosine (1 mM) was used as a common reference to normalize results from test compounds. Using this normalization procedure Vmax (i.e. maximal induced current) for different compounds tested on different oocytes could be compared.

hPEPT1 = biological target: T4, hPEPT1 (Homo sapiens, UniProt P46059); assay: Electrogenic transport in Xenopus oocytes expressing hPEPT1; type: cell-based; conditions: for % Max. (Gly-Sar): hPEPT1-expressing oocytes, test compound 1 mM, relative to Gly-Sar; for transport by hPEPT1 (in words): summary of Example 34
T4 sequence (P46059 1-708): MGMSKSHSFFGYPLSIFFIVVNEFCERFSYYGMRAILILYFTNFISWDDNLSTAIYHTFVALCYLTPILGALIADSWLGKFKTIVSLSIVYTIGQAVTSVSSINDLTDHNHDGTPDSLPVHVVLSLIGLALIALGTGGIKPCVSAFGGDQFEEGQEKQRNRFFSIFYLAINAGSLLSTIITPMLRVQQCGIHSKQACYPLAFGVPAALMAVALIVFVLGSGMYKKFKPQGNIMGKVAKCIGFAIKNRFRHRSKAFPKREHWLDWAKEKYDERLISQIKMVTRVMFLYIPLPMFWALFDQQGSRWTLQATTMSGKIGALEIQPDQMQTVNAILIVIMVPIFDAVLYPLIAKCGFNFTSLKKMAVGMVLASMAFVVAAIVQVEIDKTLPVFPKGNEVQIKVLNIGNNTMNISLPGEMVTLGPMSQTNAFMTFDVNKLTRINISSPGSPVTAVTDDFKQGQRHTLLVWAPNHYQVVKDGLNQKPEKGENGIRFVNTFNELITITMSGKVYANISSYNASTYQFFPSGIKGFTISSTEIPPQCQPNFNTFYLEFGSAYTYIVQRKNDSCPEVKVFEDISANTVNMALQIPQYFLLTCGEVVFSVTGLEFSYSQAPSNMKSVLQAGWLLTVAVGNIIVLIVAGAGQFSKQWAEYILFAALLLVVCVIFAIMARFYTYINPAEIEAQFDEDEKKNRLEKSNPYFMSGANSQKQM
Excerpt: as §2, with “Rat” for “Human IBAT”, “human PEPT1 and PEPT2 transporter” for “LBAT Transporter”
as §3, §4, §5

[4] = Pharmacokinetics in rats following oral administration (Examples 38 and 40); conditions: male, Sprague-Dawley, rat, in vivo, 25 mg/kg
Method: (§6) The pharmacokinetics of the prodrug (4) were examined in rats. Three groups of four male Sprague-Dawley rats (approx 200 g) with jugular cannulae each received one of the following treatments: A) a single bolus intravenous injection of gabapentin (25 mg/kg, as a solution in water); B) a single oral dose of gabapentin (25 mg/kg, as a solution in water) administered by oral gavage; C) a single oral dose of (4) (85.25 mg/kg, as a solution in water) administered by oral gavage. Animals were fasted overnight prior to dosing and until 4 hours post-dosing. Serial blood samples were obtained over 24 hours following dosing and blood was processed for plasma by centrifugation. Plasma samples were stored at −80° C. until analyzed. Concentrations of (4) or gabapentin in plasma samples were determined by LC/MS/MS as described in Example 35. Plasma (50 μL) was precipitated by addition of […] of methanol and supernatent was injected directly onto the LC/MS/MS system. The method was linear for gabapentin over the concentration range 0.001 to 20 ng/mL and for (4) over the concentration range 0.01 to 10 ng/mL.
as §6, with “prodrug Cholyl-Phe-Gabapentin (7g)” for “prodrug (4)”, “of (7g) (103.5” for “of (4) (85.25”, “of (7g)” for “of (4)”, “or (2)” for “or gabapentin”, “described above.” for “described in Example 35.”, “system.” for “system. The method was linear for gabapentin over the concentration range 0.001 to 20 ng/mL and for (4) over the concentration range 0.01 to 10 ng/mL.”

T1 sequence (Q12908 whole entry): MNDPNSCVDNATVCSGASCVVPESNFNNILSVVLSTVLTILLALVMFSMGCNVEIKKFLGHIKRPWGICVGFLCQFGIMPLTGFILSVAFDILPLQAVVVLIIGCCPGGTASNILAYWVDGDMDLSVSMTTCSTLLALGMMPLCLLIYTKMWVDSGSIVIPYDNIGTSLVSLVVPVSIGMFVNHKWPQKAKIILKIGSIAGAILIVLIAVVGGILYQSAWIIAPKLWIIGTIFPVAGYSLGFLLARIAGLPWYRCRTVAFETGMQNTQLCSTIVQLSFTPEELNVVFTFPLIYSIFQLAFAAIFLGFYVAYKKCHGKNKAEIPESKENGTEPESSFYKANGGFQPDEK
T2 sequence (Q14973 whole entry): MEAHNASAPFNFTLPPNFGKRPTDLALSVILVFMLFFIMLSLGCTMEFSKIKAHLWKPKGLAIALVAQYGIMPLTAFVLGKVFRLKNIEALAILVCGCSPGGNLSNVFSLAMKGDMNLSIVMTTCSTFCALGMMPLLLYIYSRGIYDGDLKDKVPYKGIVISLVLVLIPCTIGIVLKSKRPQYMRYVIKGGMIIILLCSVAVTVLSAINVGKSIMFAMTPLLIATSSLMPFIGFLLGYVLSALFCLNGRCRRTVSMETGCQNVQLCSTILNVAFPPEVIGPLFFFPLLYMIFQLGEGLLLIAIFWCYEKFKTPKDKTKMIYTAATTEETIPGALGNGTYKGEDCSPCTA

| Compound | % Max. (GDC) (IBAT [2]) [%] | % Max. (Gly-Sar) (hPEPT2) [%] | % Max. (Gly-Sar) (hPEPT1) [%] | further results |
| --- | --- | --- | --- | --- |
| CC(CCC(=O)NC(Cc1ccc(O)c(O)c1)C(=O)O)C1CCC2C3C(O)CC4CC(O)CCC4(C)C3CC(O)C12C (centres unmarked) [(20), Cholyl-Dopa] | 0 |  |  | IC50 (IBAT [1]): 83 µM; IC50 (LBAT): 5 µM |
| N-Phthaloylglycine |  |  |  | half-life [3]: ~0.167 h |
| CC(CCC(=O)NC(Cc1ccccc1)C(=O)NCC1(CC(=O)O)CCCCC1)C1CCC2C3C(O)CC4CC(O)CCC4(C)C3CC(O)C12C (centres unmarked) [(7g), Cholyl-Phe-Gabapentin] | 28 |  |  | IC50 (IBAT [1]): 92 µM; EC50 (IBAT [2]): 140 µM; IC50 (LBAT): 0.5 µM |
| N[C@@H](CC(=O)O)C(=O)N[C@H](COCc1ccccc1)C(=O)O [(37), H-Asp-D-Ser(Bzl)-OH] (H-Asp-[dS](Bn)-OH) |  | 0 | 1 |  |
| C[C@H](CCC(=O)N[C@@H](Cc1ccc2oc(=O)oc2c1)C(=O)O)[C@H]1CC[C@H]2[C@@H]3[C@H](O)C[C@@H]4C[C@H](O)CC[C@]4(C)[C@H]3C[C@H](O)[C@]12C [(23), Cholyl-Dopa-(3,4-carbonate)] | 25 |  |  | IC50 (IBAT [1]): 74 µM; IC50 (LBAT): 1.8 µM |
| N[C@@H](CCC(=O)O)C(=O)N[C@H](CSCc1ccccc1)C(=O)O [(34), H-Glu-D-Cys(Bzl)-OH] (H-Glu-[dC](Bn)-OH) |  | 0 | 1 |  |
| Cl.NCC1(CC(=O)O)CCCCC1 [gabapentin, 1-aminomethyl-1-cyclohexaneacetic acid hydrochloride, reference compound] |  |  |  | bioavailability [4]: 87 ± 18%; Tmax ([4]; po): 2.8 ± 2.5 h; half-life ([4]; po): 2.4 ± 0.5 h |
| N[C@@H](CC(=O)O)C(=O)N[C@@H](CSCc1ccccc1)C(=O)O [(30), H-Asp-Cys(Bzl)-OH] (H-Asp-Cys(Bn)-OH) |  | 78 | 55 | transport by hPEPT1 (in words) (hPEPT1): efficient substrates |
| CC(CCC(=O)NCC(=O)NCC1(CC(=O)O)CCCCC1)C1CCC2C3C(O)CC4CC(O)CCC4(C)C3CC(O)C12C (centres unmarked) [(7a), Cholyl-Gly-Gabapentin] | 67 |  |  |  |
| N[C@@H](CC(=O)O)C(=O)N[C@H](CSCc1ccccc1)C(=O)O [(36), H-Asp-D-Cys(Bzl)-OH] (H-Asp-[dC](Bn)-OH) |  | 0 | 2 |  |
| N[C@@H](CCC(=O)O)C(=O)N[C@@H](CSCc1ccccc1)C(=O)O [(27), H-Glu-Cys(Bzl)-OH] (H-Glu-Cys(Bn)-OH) |  | 56 | 41 | transport by hPEPT1 (in words) (hPEPT1): efficient substrates |
| N[C@@H](CCC(=O)O)C(=O)N[C@@H](COCc1ccccc1)C(=O)O [(28), H-Glu-Ser(Bzl)-OH] (H-Glu-Ser(Bn)-OH) |  | 82 | 58 | transport by hPEPT1 (in words) (hPEPT1): efficient substrates |
| N[C@@H](CCC(=O)O)C(=O)N[C@H](COCc1ccccc1)C(=O)O [(35), H-Glu-D-Ser(Bzl)-OH] (H-Glu-[dS](Bn)-OH) |  | 0 | 1 |  |
